Measurements as given in patent EP1787658B1, “Sustained release formulations of somatostatin analogue inhibitors of growth hormone” (CHEMI S.p.A., priority 2005, dated 2012).

Test: Plasma levels of somatostatin analogue after a single s.c. or i.m. administration, by LC/MS-MS
Type: in vivo, rats
Settings: after both s.c. and i.m injection
Method: Two groups of animals were treated with a single administration each s.c. and i.m, of 100µl of the formulation (3.37 mg of oligopeptide equal to 15mg/Kg). Blood samples from 5 animals per time point were collected at different time points up to 49 days after treatment. The plasma levels of somatostine analogue were determined by a LC/MS-MS method.
Mean plasma, levels and standard deviations for each time point are shown in the table below (Table 2) and in Figures 1 and 2.

## C[C@@H](O)[C@@H]1NC(=O)[C@H](CCCCN)NC(=O)[C@@H](Cc2c[nH]c3ccccc23)NC(=O)[C@H](Cc2ccccc2)NC(=O)[C@@H](NC(=O)[C@H](N)Cc2ccccc2)CSSC[C@@H](C(=O)N[C@H](CO)[C@@H](C)O)NC1=O [Octreotide acetate]
  presence of detectable levels of the oligopeptide: up to 49 days
